The values below come from patent US5481013A, “Carboxylic acid derivatives” (Ciba-Geigy Corporation, priority 1992, dated 1996).

Common to all, as to assay type: in vivo
Experiment [1] deals with Nephotettix cincticeps. The experiment in a line: Activity against Nephotettix cincticeps (spray on rice plants). To be noted: 504 h, 400 ppm spray on rice plants, larvae in stages 2 and 3, evaluated 21 days later, read-out: percentage reduction in population (% activity). Here is the method:
Rice plants are treated with a spray mixture prepared with an aqueous emulsion and comprising 400 ppm of the active ingredient. After the spray coating has dried on, the rice plants are populated with leaf hopper larvae in stages 2 and 3. The test is evaluated 21 days later. The percentage reduction in population (% activity) is determined by comparing the number of surviving leaf hoppers on the treated plants with those on the untreated plants.

Experiment [2] concerns Panonychus ulmi (OP- and carb.- resistant). The experiment is described as follows: Activity against Panonychus ulmi (OP- and carb.- resistant). To be noted: 336 h, 400 ppm spray on apple seedlings, evaluated after 14 days, read-out: percentage reduction in population (% activity). The protocol: Apple seedlings are populated with adult females of Panonychus ulmi. After seven days, the infested plants are sprayed to drip point with an aqueous emulsion comprising 400 ppm of the test compound and grown in the greenhouse. The test is evaluated after 14 days. The percentage reduction in population (% activity) is determined by comparing the number of dead spider mites on the treated plants with those on the untreated plants. […] An activity of over 80% is shown, in particular, by compound Nos. 1.01, 2.01, 2.07, 2.08, 2.10, 2.12 to 2.16, 2.22, 2.23, 2.26, 3.01, 4.01, 4.02, 4.06, 5.01 to 5.03, 5.05, 5.06, 5.08, 5.10, 5.11, 5.15, 5.16 and 5.20 to 5.25.

Experiment [3] has as its system Dermanyssus gallinae. The experiment is described as follows: Activity against Dermanyssus gallinae. To be noted: 72 h, 10 ppm solution, mites in different development stages, after 3 days. The protocol: 2 to 3 ml of a solution comprising 10 ppm of active ingredient and approximately 200 mites in different development stages are placed into a glass container which is open at the top. The container is then sealed with a cottonwool ball, shaken for 10 minutes until the mites are wetted completely, and then briefly turned over so that the remaining test solution can be absorbed by the cottonwool. After 3 days, the mortality of the mites is determined by counting the dead individuals; it is given as a percentage.

For experiment [4], the system named is adult Anthonomus grandis. The experiment is described as follows: Activity against adult Anthonomus grandis. To be noted: 72 h, 400 ppm spray on young cotton plants, adults, evaluated after 3 days, read-out: percentage reduction in population or in feeding damage (% activity). The protocol:
Young cotton plants are sprayed with a spray mixture prepared with an aqueous emulsion and comprising 400 ppm of the active ingredient. After the spray coating has dried on, the cotton plants are populated with 10 adult Anthonomus grandis and placed into a plastic container. The test is evaluated after 3 days. The percentage reduction in population, or the percentage reduction in feeding damage (% activity), is determined by comparing the number of dead beetles and the feeding damage on the treated plants with those on the untreated plants.

For experiment [5], the system named is Nilaparvata lugens. The experiment is described as follows: Activity against Nilaparvata lugens (spray on rice plants). To be noted: 504 h, 400 ppm spray on rice plants, larvae in stages 2 and 3, evaluated after 21 days, read-out: percentage reduction in population (% activity). Here is the method:
Rice plants are treated with a spray mixture prepared with an aqueous emulsion and comprising 400 ppm of the active ingredient. After the spray coating has dried on, the rice plants are populated with plant hopper larvae in stages 2 and 3. The test is evaluated after 21 days. The percentage reduction in population (% activity) is determined by comparing the number of surviving plant hoppers on the treated plants with the number of plant hoppers on the untreated plants. […] An activity of over 80% is shown, in particular, by compound Nos. 1.01, 2.01 to 2.03, 2.07, 2.08, 2.10 to 2.16, 2.20, 2.22, 2.23, 2.26, 3.01, 4.01 to 4.06, 4.20, 5.01 to 5.06, 5.08, 5.10 to 5.12, 5.15, 5.16 and 5.20 to 5.25.

Experiment [6] has as its system Tetranychus urticae. The experiment is described as follows: Activity against Tetranychus urticae. The conditions noted are these: 144 h, 400 ppm spray on young bean plants, mixed population, 6 days at 25° C, read-out: percentage reduction in population (% activity). The protocol:
Young bean plants are populated with a mixed population of Tetranychus urticae and, after 1 day, sprayed with a spray mixture prepared with an aqueous emulsion and comprising 400 ppm of the active ingredient. The plants are subsequently incubated for 6 days at 25° C and then evaluated. The percentage reduction in population (% activity) is determined by comparing the number of dead eggs, larvae and adults on the treated plants with those on the untreated ones.

In experiment [7] the test system is Heliothis virescens. The experiment in a line: Ovicidal/larvicidal activity on Heliothis virescens. To be noted: 192 h, 400 ppm spray on eggs deposited on cotton, evaluated after 8 days, read-out: % reduction in population (hatching percentage of eggs and survival rate of caterpillars). Here is the method:
Heliothis eggs which have been deposited on cotton are sprayed with a spray mixture prepared with an aqueous emulsion and comprising 400 ppm of the active ingredient. After 8 days, the hatching percentage of the eggs and the survival rate of the caterpillars are evaluated by comparing them with untreated control batches (% reduction in population).

Experiment [8] relates to Nilaparvata lugens. The experiment in a line: Systemic activity against Nilaparvata lugens. To be noted: 144 h, pots with rice plants in 400 ppm aqueous emulsion solution, larvae in stages 2 and 3, evaluated 6 days later, read-out: percentage reduction in population (% activity). The protocol:
Pots containing rice plants are placed into an aqueous emulsion solution comprising 400 ppm of the active ingredient. The rice plants are subsequently populated with larvae in stages 2 and 3. The test is evaluated 6 days later. The percentage reduction in population (% activity) is determined by comparing the numbers of plant hoppers on the treated plants with those on the untreated plants.

For experiment [9], the system named is Ctenocephalides felis. The experiment is described as follows: Activity against Ctenocephalides felis. The conditions noted are these: 504 h, 100 ppm in flea larvae nutrient medium, flea eggs, checked after 21 days. Here is the method:
20 to 25 flea eggs are placed into a horizontally positioned 50 ml tissue culture flask into which 15 g of flea larvae nutrient medium comprising 100 ppm of the active ingredient to be tested have previously been introduced. The test flasks are incubated in an incubator at 26° to 27° C. and an atmospheric humidity of 60-70%. After 21 days, the flasks are checked for the presence of adult fleas, unhatched pupae and larvae.

Experiment [10] deals with Heliothis virescens caterpillars. The experiment is described as follows: Activity against Heliothis virescens caterpillars. To be noted: 144 h, 400 ppm spray on young soybean plants, first larval stage, evaluated after 6 days, read-out: percentage reduction in population or in feeding damage (% activity). The protocol:
Young soybean plants are sprayed with a spray mixture prepared with an aqueous emulsion and comprising 400 ppm of the active ingredient. After the spray coating has dried on, the soybean plants are populated with 10 Heliothis virescens in the first larval stage and placed into a plastic container. The test is evaluated after 6 days. The percentage reduction in population, or the percentage reduction in feeding damage (% activity), is determined by comparing the number of dead caterpillars and the feeding damage on the treated plants with those on the untreated plants.

In experiment [11] the test system is Bemisia tabaci. The experiment in a line: Activity against Bemisia tabaci. To be noted: 336 h, 400 ppm spray on dwarf bean plants with nymphs, evaluated 14 days after application, read-out: activity (hatching percentages vs untreated control). The protocol:
Dwarf bean plants are placed into gauze cages and populated with adult Bemisia tabaci specimens (white fly). After oviposition has taken place, all adults are removed and, 10 days later, the plants with the nymphs located thereon are treated with a spray mixture of the active ingredients to be tested (concentration 400 ppm), which has been prepared with an aqueous emulsion. The test is evaluated for hatching percentages 14 days after the active ingredient has been applied by comparison with the untreated control batches. […] An activity of over 80% is shown, in particular, by compound Nos. 1.01, 2.01 to 2.08, 2.10 to 2.16, 2.22, 2.23, 3.01, 4.01, 4.02, 4.05, 4.06, 5.02, 5.03, 5.06 to 5.08, 5.10, 5.11, 5.20, 5.21 and 6.09.

A value given as a limit tells only on which side of the number the result lay.

`O=C(CCCC=C(F)F)OCCOc1ccc(Oc2ccccc2)cc1` [Compound 2.01]: the activity at 400 ppm in experiment [1] and in experiment [2] was greater than 80% throughout.
For `O=C(CCCC=C(F)F)OCCOc1ccc(Sc2ccccc2)cc1` [Compound 2.02], the activity at 400 ppm in [1] is greater than 80%.
On to `O=C(CCCC=C(F)F)OCCOc1ccc(Oc2ccccn2)cc1` [Compound 2.03], for which, in experiment [1], the activity at 400 ppm was greater than 80%.
One may read the mortality as the percentage killed. A high value points to fewer survivors. In experiment [3], `CC(COC(=O)CCCC=C(F)F)Oc1ccc(Oc2ccccc2)cc1` (stereo not shown) [Compound 2.06] returned a mortality at 10 ppm greater than 80%. For the same compound, the activity at 400 ppm in experiment [1] was greater than 80%.
Turning to `O=C(CCCC=C(F)F)OCCOc1ccc(OCc2ccc(F)cc2)cc1` [Compound 2.07], the activity at 400 ppm in experiment [4], in experiment [1], in experiment [2] and in [5] was greater than 80% each time.
Regarding `O=C(CCCC=C(F)F)OCCOc1ccc(OCc2ccc(Cl)cc2)cc1` [Compound 2.08], the activity at 400 ppm in [4], in [2] and in experiment [5] was greater than 80% throughout.
`N#Cc1ccc(COc2ccc(OCCOC(=O)CCCC=C(F)F)cc2)cc1` [Compound 2.10]: the activity at 400 ppm in experiment [6] and in experiment [2] was greater than 80% in each case.
As for `CC(OC(=O)CCCC=C(F)F)C(C)Oc1ccc(Oc2ccccc2)cc1` (stereo not shown) [Compound 2.13], the mortality at 10 ppm in experiment [3] was greater than 80%.
As to `O=C(CCCC=C(F)F)OCCOc1ccc(OCc2cccc([N+](=O)[O-])c2)cc1` [Compound 2.15], the pest or weed control at 400 ppm in experiment [7] is greater than 80%.
Still for that read-out and setting: as for `Cc1ccc(COc2ccc(OCCOC(=O)CCCC=C(F)F)cc2)cc1C` [Compound 2.16], the figure is greater than 80%.
Consider `O=C(CCCC=C(F)F)NCCOc1ccc(Oc2ccccc2)cc1` [Compound 2.20], for which the activity at 400 ppm in experiment [8] and in experiment [5] was greater than 80% throughout.
In experiment [9], `O=C(CCCCCCCC=C(F)F)OCCOc1ccc(Oc2ccccn2)cc1` [Compound 4.03] had a pest or weed control at 100 ppm greater than 80%.
`O=C(CCCCCCCC=C(F)F)OCCOc1ccc(OCc2ccccc2)cc1` [Compound 4.05] had a mortality at 10 ppm in [3] greater than 80%. Besides, the activity at 400 ppm in experiment [1] and in [10] was greater than 80% in each case. Moreover, in experiment [11], the pest or weed control at 400 ppm was greater than 80%.
Consider `O=C(CCCCCCCC=C(F)F)NCCOc1ccc(Oc2ccccc2)cc1` [Compound 4.20], for which the activity at 400 ppm in experiment [6], in experiment [10], in experiment [8] and in [5] was greater than 80% each time. Moreover, in experiment [7], the pest or weed control at 400 ppm is greater than 80%.
Turning to `O=C(CCCCCCCCCC=C(F)F)OCCOc1ccc(Oc2ccccn2)cc1` [Compound 5.03], the pest or weed control at 400 ppm in experiment [11] is greater than 80%.
On to `CC(COC(=O)CCCCCCCCCC=C(F)F)Oc1ccc(Oc2ccccc2)cc1` (stereo not shown) [Compound 5.06], for which the activity at 400 ppm in experiment [2] was greater than 80%.
As for `N#Cc1ccc(COc2ccc(OCCOC(=O)CCCCCCCCCC=C(F)F)cc2)cc1` [Compound 5.10], the activity at 400 ppm in experiment [4] and in experiment [2] was greater than 80% throughout. Also, in experiment [11], the pest or weed control at 400 ppm was greater than 80%.
With `Cc1ccc(COc2ccc(OCCOC(=O)CCCCCCCCCC=C(F)F)cc2)cc1` [Compound 5.11], in experiment [2], the activity at 400 ppm was greater than 80%. Moreover, in [11], the pest or weed control at 400 ppm is greater than 80%.
As to `O=C(CCCCCCCCCC=C(F)F)OCCOc1ccc(OCc2cccc([N+](=O)[O-])c2)cc1` [Compound 5.15], the activity at 400 ppm in experiment [6], in [1], in experiment [2], in experiment [10], in experiment [8] and in experiment [5] was greater than 80% in each case. In addition, the pest or weed control at 400 ppm in [7] was greater than 80%.
Consider `Cc1ccc(COc2ccc(OCCOC(=O)CCCCCCCCCC=C(F)F)cc2)cc1C` [Compound 5.16], for which the activity at 400 ppm in experiment [6], in experiment [4], in [1], in [2], in experiment [10] and in [8] was greater than 80% in each case. Moreover, the activity at 400 ppm in experiment [5] was greater than 80%. In experiment [7], the pest or weed control at 400 ppm is greater than 80%.
As to `O=C(CCCCCCCCCC=C(F)F)OCCOc1ccc(OCc2cccc(Cl)c2)cc1` [Compound 5.20], in [1], the activity at 400 ppm was greater than 80%. In experiment [11], the pest or weed control at 400 ppm is greater than 80%.
In experiment [3], `O=C(CCCCCCCCCC=C(F)F)NCCOc1ccc(OCc2ccc(C(F)(F)F)cn2)cc1` [Compound 5.21] registered a mortality at 10 ppm greater than 80%. In experiment [11], the pest or weed control at 400 ppm is greater than 80%.
On to `O=C(CCCCCCCCCC=C(F)F)OCCOc1ccc(OCc2ncc(C(F)(F)F)cc2Cl)cc1` [Compound 5.22], for which the activity at 400 ppm in experiment [1] was greater than 80%.
On to `CC(COC(=O)CCCCCCCCCC=C(F)F)Oc1ccc(Sc2ccccc2)cc1` (stereo not shown) [Compound 5.25], for which the activity at 400 ppm in experiment [1] and in [10] was greater than 80% in each case.
Take `CC(CCCCCCCCCC(=O)OCCOc1ccc(Oc2ccccc2)cc1)=C(F)Cl` [Compound 6.09]: the pest or weed control at 400 ppm in [7] and in experiment [11] was greater than 80% each time.
